Source: patent US6872727B1, “Polycyclic pyrimidine -2,4(1H,3H)-diones with functionalized alkyl residues at the 1- and/or 3-position(s); methods for their synthesis and pharmaceutical preparation” (Privates Institut fur Biomedizinische Forschung und Beratung, priority 1999, dated 2005)
pIC50: −log10 of the molar value.

Molecular target: Clostridium histolyticum collagenase (EC 3.4.24.3)
Test: Inhibition of Clostridium histolyticum collagenase, spectrophotometric FALGPA assay
Assay type: biochemical
Settings: chromogenic substrate FALGPA; read-out: C. histolyticum (50% inhibition)
Excerpt: The activity of Clostidium histolyticum collagenase may be readily determined by a simple spectrophotometric assay using the synthetic chromogenic peptide substrate N-(3-[2-furyl]acryloyi)-leucine-glycine-proline-alanine (FALGPA; Van Hart, H. E. and Steinbrink, D. R. 1981, Anal. Biochem. 113, 356). The degree of inhibition of the degradation of this chromogenic substrate by the addition of the various test substances described in Table 1 may be easily quantified. The enzyme and substrate are commercially available.

Point of comparison: O=c1[nH]c(=O)n(CCS)c2ccccc12 [Example 5, 1-(2-mercaptoethyl)-chinazolin-2,4(1H,3H)-dione], pIC50 4.41. Against it:
- CC(S)CCn1c(=O)[nH]c(=O)c2ccccc21 (racemic) [Example 3, (R,S)-1-(3-mercaptobut-1-yl)-chinazolin-2,4(1H,3H)-dione] — within 0.2 log units, 4.56
- O=c1[nH]c(=O)n(CCCS)c2ccccc12 [Example 4, 1-(3-mercaptopropyl)-chinazolin-2,4(1H,3H)-dione] — within 0.2 log units, 4.27
- Cn1c(=O)c2ccccc2n(CCCS)c1=O [Example 7, 1-(3-mercaptoprop-1-yl)-3-methyl-chinazolin-2,4(1H,3H)-dione] — 0.53 log units higher, 4.94
